According to the NIST ThermoML archive (doi:10.1016/j.tca.2011.11.025):

Test: excess molar enthalpy (molar enthalpy of mixing); xn = mol fraction of the nth substance listed
Settings: 308.15 K, 101 kPa, Liquid, 2-drop calorimeter

Cc1cccc(C)c1 [1,3-dimethylbenzene] + C1COCCO1
Settings	excess molar enthalpy [kcal/mol]
x2 = 0.0638	0.0149
x2 = 0.1239	0.0289
x2 = 0.1845	0.0429
x2 = 0.223	0.0496
x2 = 0.2742	0.0593
x2 = 0.3357	0.0675
x2 = 0.4212	0.0759
x2 = 0.4781	0.0796
x2 = 0.5516	0.0797
x2 = 0.6212	0.0748
x2 = 0.6836	0.0687
x2 = 0.7583	0.0576
x2 = 0.7797	0.0534
x2 = 0.8183	0.0467
x2 = 0.8884	0.0298
x2 = 0.9481	0.0144

Cc1ccc(C)cc1 [1,4-dimethylbenzene] + C1COCCO1
Settings	excess molar enthalpy [kcal/mol]
x2 = 0.0757	0.0122
x2 = 0.1355	0.0244
x2 = 0.1984	0.0362
x2 = 0.2656	0.0481
x2 = 0.3025	0.0538
x2 = 0.3648	0.062
x2 = 0.4154	0.0674
x2 = 0.4759	0.0705
x2 = 0.5524	0.0717
x2 = 0.6251	0.0687
x2 = 0.6956	0.0625
x2 = 0.7415	0.0563
x2 = 0.7867	0.0487
x2 = 0.8521	0.0355
x2 = 0.8953	0.026
x2 = 0.9326	0.0168
